The NIST ThermoML archive (doi:10.1016/j.fluid.2009.08.023)
Several values for one entry are separate records, joined by “and”; a condition that tells them apart may be missing. Equal values may be shown once. Numbers after ± are expanded uncertainties.

Settings: Liquid, Closed cell (Static) method

FC(C(F)(F)F)C(F)(F)F [1,1,1,2,3,3,3-heptafluoropropane]
Settings | vapor or sublimation pressure [kPa]
233.8 K | 33.41 ± 0.6
235.53 K | 36.68 ± 0.6
237.5 K | 40.7 ± 0.6
237.93 K | 41.62 ± 0.61
239.21 K | 44.45 ± 0.61
241.12 K | 48.94 ± 0.61
243.06 K | 53.89 ± 0.61
245.07 K | 59.45 ± 0.61
247.09 K | 65.47 ± 0.61
247.15 K | 65.66 ± 0.61
249.1 K | 71.95 ± 0.61
251.21 K | 79.25 ± 0.62
253.11 K | 86.34 ± 0.62
255.19 K | 94.66 ± 0.62
257.15 K | 103.11 ± 0.63
257.2 K | 103.29 ± 0.63
258.2 K | 107.8 ± 0.63
259.06 K | 111.83 ± 0.63
261.03 K | 121.45 ± 0.63
262.97 K | 131.55 ± 0.64
265.23 K | 144.08 ± 0.65
267.13 K | 155.39 ± 0.65
269.15 K | 168.13 ± 0.66
271.12 K | 181.25 ± 0.67
271.9 K | 186.72 ± 0.67
273.22 K | 196.14 ± 0.68
275.23 K | 211.33 ± 0.69
277.22 K | 227.17 ± 0.7
277.55 K | 229.88 ± 0.71
279.11 K | 243.04 ± 0.72
281.21 K | 261.71 ± 0.73
283.19 K | 280.28 ± 0.75
283.23 K | 280.58 ± 0.75
285.14 K | 299.44 ± 0.77
287.16 K | 320.43 ± 0.78
287.95 K | 329.02 ± 0.79
289.06 K | 341.15 ± 0.81
291.11 K | 364.72 ± 0.83
292.83 K | 385.4 ± 0.85
293.23 K | 390.27 ± 0.86
294.98 K | 412.44 ± 0.88
297.07 K | 440.12 ± 0.91
297.75 K | 449.31 ± 0.92
299.11 K | 468.35 ± 0.94
301.1 K | 497.27 ± 0.98
303.22 K | 529.51 ± 1
306.1 K | 575.88 ± 1.1
308.04 K | 608.64 ± 1.1
318.59 K | 813.28 ± 1.4
320.55 K | 856.24 ± 1.4
321.06 K | 867.63 ± 1.4
328.3 K | 1043.7 ± 1.7
331.45 K | 1127.8 ± 1.9
338.37 K | 1331.1 ± 2.2
341.94 K | 1446 ± 2.4
348.87 K | 1690.7 ± 2.7
352.27 K | 1822.1 ± 3
359.69 K | 2136.3 ± 3.4
360.92 K | 2192.1 ± 3.5
371.37 K | 2720.8 ± 4.3
371.43 K | 2723.8 ± 4.3

FC(F)(F)CC(F)(F)F [1,1,1,3,3,3-hexafluoropropane]
Settings | vapor or sublimation pressure
239.02 K | 20.71 ± 0.6 kPa
240.1 K | 21.95 ± 0.6 kPa
242.86 K | 25.66 ± 0.6 kPa
243.17 K | 26.02 ± 0.6 kPa
243.26 K | 26.19 ± 0.6 kPa
244.9 K | 28.6 ± 0.6 kPa
247.01 K | 31.96 ± 0.6 kPa
249.11 K | 35.66 ± 0.6 kPa
249.3 K | 35.98 ± 0.6 kPa
251.19 K | 39.62 ± 0.6 kPa
253.11 K | 43.66 ± 0.61 kPa
253.18 K | 43.74 ± 0.61 kPa
253.29 K | 43.96 ± 0.6 kPa
253.33 K | 44.11 ± 0.61 kPa
255.21 K | 48.33 ± 0.61 kPa
257.22 K | 53.21 ± 0.61 kPa
259.25 K | 58.54 ± 0.61 kPa
261.09 K | 63.74 ± 0.61 kPa
262.94 K | 69.34 ± 0.61 kPa
263.1 K | 69.79 ± 0.61 kPa
263.2 K | 70.19 ± 0.61 kPa
264.08 K | 72.93 ± 0.61 kPa
264.88 K | 75.59 ± 0.61 kPa
266.95 K | 82.8 ± 0.62 kPa
269.03 K | 90.55 ± 0.62 kPa
271.1 K | 98.85 ± 0.62 kPa
273.22 K | 107.93 ± 0.63 kPa
273.31 K | 108.24 ± 0.63 kPa
273.32 K | 108.34 ± 0.63 kPa
273.4 K | 108.71 ± 0.63 kPa
275.23 K | 117.09 ± 0.63 kPa
277.32 K | 127.3 ± 0.64 kPa
279.29 K | 137.56 ± 0.64 kPa
280.96 K | 146.78 ± 0.65 kPa
283.24 K | 160.12 ± 0.65 kPa
283.27 K | 160.26 ± 0.66 kPa
285.26 K | 172.59 ± 0.66 kPa
287.23 K | 185.57 ± 0.67 kPa
289.23 K | 199.5 ± 0.68 kPa
291.2 K | 214 ± 0.69 kPa
293.16 K | 229.27 ± 0.7 kPa
293.29 K | 230.28 ± 0.7 kPa
294.32 K | 238.65 ± 0.71 kPa
295.26 K | 246.45 ± 0.72 kPa
297.25 K | 263.72 ± 0.73 kPa
299.35 K | 282.86 ± 0.75 kPa
301.4 K | 302.67 ± 0.77 kPa
303.06 K | 319.32 ± 0.78 kPa
303.24 K | 321.23 ± 0.78 kPa
303.3 K | 321.84 ± 0.78 kPa
303.55 K | 324.31 ± 0.79 kPa
305.21 K | 342.11 ± 0.8 kPa
306.13 K | 352.04 ± 0.81 kPa
307.21 K | 364.17 ± 0.83 kPa
307.88 K | 372.01 ± 0.84 kPa
308.18 K | 375.53 ± 0.84 kPa
308.2 K | 375.7 ± 0.84 kPa
309.52 K | 391.11 ± 0.86 kPa
311.21 K | 412.03 ± 0.88 kPa
311.29 K | 412.84 ± 0.88 kPa
312.22 K | 424.67 ± 0.89 kPa
313.16 K | 436.99 ± 0.9 kPa
313.29 K | 438.48 ± 0.91 kPa
313.85 K | 445.61 ± 0.92 kPa
315.31 K | 465.57 ± 0.94 kPa
317.16 K | 491.51 ± 0.97 kPa
319.27 K | 522.37 ± 1 kPa
320.93 K | 547.63 ± 1 kPa
321.21 K | 552.1 ± 1 kPa
323.44 K | 587.43 ± 1.1 kPa
325.87 K | 628.19 ± 1.1 kPa and 628.25 ± 1.1 kPa
327.21 K | 651.86 ± 1.2 kPa
328.24 K | 669.95 ± 1.2 kPa
329.19 K | 687.47 ± 1.2 kPa
330.27 K | 707.58 ± 1.2 kPa
330.43 K | 710.54 ± 1.2 kPa
330.87 K | 718.92 ± 1.2 kPa
332.2 K | 744.56 ± 1.3 kPa
332.59 K | 752.25 ± 1.3 kPa
335.42 K | 809.53 ± 1.4 kPa
337.41 K | 851.82 ± 1.4 kPa
337.88 K | 862 ± 1.4 kPa
339.87 K | 906.21 ± 1.5 kPa
341.92 K | 953.67 ± 1.6 kPa
343.98 K | 1002.9 ± 1.6 kPa
345.61 K | 1043.5 ± 1.7 kPa
346.25 K | 1059.7 ± 1.7 kPa
348.23 K | 1111.2 ± 1.8 kPa
350.37 K | 1168.7 ± 1.9 kPa
352.05 K | 1215.7 ± 2 kPa
352.45 K | 1226.9 ± 2 kPa
353.22 K | 1249.3 ± 2 kPa
355.64 K | 1320.5 ± 2.1 kPa
356.7 K | 1352.6 ± 2.2 kPa
359.21 K | 1431.4 ± 2.3 kPa
361.34 K | 1500.8 ± 2.4 kPa
363.46 K | 1572.3 ± 2.5 kPa
365.6 K | 1647.1 ± 2.7 kPa
367.45 K | 1714.4 ± 2.8 kPa
369.49 K | 1790.5 ± 2.9 kPa
371.35 K | 1862.2 ± 3 kPa
372.12 K | 1892.8 ± 3 kPa
373.44 K | 1945.6 ± 3.1 kPa
373.47 K | 1946.8 ± 3.1 kPa
374.62 K | 1994.1 ± 3.2 kPa
375.47 K | 2029.4 ± 3.3 kPa
377.6 K | 2120.2 ± 3.4 kPa
378.14 K | 2144.1 ± 3.4 kPa
379.74 K | 2214.5 ± 3.6 kPa
381.83 K | 2310.2 ± 3.7 kPa
383.87 K | 2406.7 ± 3.9 kPa
385.8 K | 2500.8 ± 4 kPa
387.8 K | 2601.6 ± 4.2 kPa
390.19 K | 2726.9 ± 4.4 kPa
392.05 K | 2828.1 ± 4.5 kPa
393.47 K | 2907.6 ± 4.7 kPa
393.73 K | 2922.2 ± 4.7 kPa
394.04 K | 2940 ± 4.7 kPa
396.05 K | 3057 ± 4.9 kPa
396.52 K | 3085.8 ± 4.9 kPa
397.97 K | 3174.2 ± 5.1 kPa
